The source made the active and inactive calls. No cut-off for these calls is given here.
Key:
[1] = The dissociation constant at ammonium group in water at 20 degree Centigrade; format: ADME; conditions: read-out: pKa3
Rattus norvegicus [2] = species on record: Rattus norvegicus; assay: Electropharmacology on rat cortical slice preparation for EAA-evoked depolarizations; Depolarization evoked by the compound is partially antagonised by 5 uM of NBQX and fully antagonised by 20 uM of NBQX.; format: functional
physchem [3] = conditions: water
physchem [4] = conditions: water; remark: listed apart in the source
Description: The dissociation constant at omega-carboxyl or hydroxyl group in water at 20 degree Centigrade.

physchem [5] = conditions: water; remark: listed apart in the source
CHO = assay: Affinity at Metabotropic glutamate receptor (Glu1-alpha,Glu2,Glu4a) expressed in CHO cells; Not significant activity up to 1 mM concentration; format: cell-based
Rattus norvegicus [6] = species on record: Rattus norvegicus; assay: Electropharmacology on rat cortical slice preparation for EAA-evoked depolarizations; Depolarization evoked by the compound is antagonised by 10 uM of CPP.; format: functional
[7] = molecular target: Glutamate receptor ionotropic, AMPA (Rattus norvegicus, UniProt P19490+P19491+P19492+P19493)
Description: Binding affinity against Ionotropic glutamate receptor AMPA using [3H]AMPA as radioligand.

Glutamate NMDA receptor = assay: Binding affinity against N-methyl-D-aspartate glutamate receptor using [3H]-CPP as radioligand.; format: protein-complex assay
[8] = molecular target: Glutamate receptor ionotropic, kainate; assay: Binding affinity against Ionotropic glutamate receptor kainate using [3H]KAIN as radioligand.; format: protein-complex assay
Rattus norvegicus [9] = species on record: Rattus norvegicus; assay: Electropharmacology on rat cortical slice preparation for EAA-evoked depolarizations;Depolarization evoked by the compound is fully antagonised by 5 uM of NBQX.; format: functional
Rattus norvegicus [10] = species on record: Rattus norvegicus; assay: Electropharmacology on rat cortical slice preparation for EAA-evoked depolarizations;; format: functional
Rattus norvegicus [11] = species on record: Rattus norvegicus; assay: Electropharmacology on rat cortical slice preparation for EAA-evoked depolarizations; Depolarization evoked by the compound is fully antagonised by 5 uM of NBQX.; format: functional
Rattus norvegicus [12] = species on record: Rattus norvegicus; assay: Electropharmacology on rat cortical slice preparation for EAA-evoked depolarizations;Depolarization evoked by the compound is partially antagonised by 5 uM of NBQX and fully antagonised by 20 uM of NBQX.; format: functional
[13] = The dissociation constant at alpha-carboxyl group in water at 20 degree Centigrade. (evaluated by Uyeno., Y et. al.); format: ADME; conditions: read-out: pKa1
[14] = The dissociation constant at omega-carboxyl or hydroxyl group iin water at 20 degree Centigrade. (evaluated by Uyeno., Y et. al.); format: ADME; conditions: read-out: pKa2
[15] = The dissociation constant at ammonium group in water at 20 degree Centigrade. (evaluated by Uyeno., Y et. al.); format: ADME; conditions: read-out: pKa3
Rattus norvegicus [16] = species on record: Rattus norvegicus; assay: Electropharmacology on rat cortical slice preparation for EAA-evoked depolarizations; Depolarization evoked by the compound is not antagonised by 5 uM of NBQX but fully antagonised by 20 uM of NBQX.; format: functional

## O=C(O)C1=NO[C@H]2CN[C@H](C(=O)O)[C@@H]12 (racemic) [listing 1 of 2 here]
[1]
  pKa: 7.4
Rattus norvegicus [2]
  EC50: 5.4 µM
Physchem [3]
  pKa: < 2
Physchem [4]
  pKa: 2.15

## O=C1NO[C@H]2[C@@H]1CN[C@@H]2C(=O)O (racemic)
Physchem [5]
  pKa: 8.3
CHO
  Activity: inactive
Rattus norvegicus [6]
  EC50: 1000 µM
[7]
  IC50: 34.9 µM
Glutamate NMDA receptor
  IC50: > 100 µM
Physchem [3]
  pKa: 2
Physchem [4]
  pKa: 5.1
[8]
  IC50: 45.3 µM

## O=C1NO[C@H]2CN[C@H](C(=O)O)[C@@H]12 (racemic)
CHO
  Activity: inactive
Rattus norvegicus [6]
  EC50: 1000 µM
[7]
  IC50: 42.6 µM
Glutamate NMDA receptor
  IC50: > 100 µM
[8]
  IC50: 7.9 µM

## O=C(O)C1=NO[C@H]2[C@@H]1CN[C@@H]2C(=O)O (racemic) [listing 1 of 2 here]
Physchem [5]
  pKa: 7.3
Rattus norvegicus [9]
  EC50: 284 µM
Physchem [3]
  pKa: < 2
Physchem [4]
  pKa: 2.6

## O=C(O)C1=NO[C@H]2CN[C@H](C(=O)O)[C@@H]12 (racemic) [listing 2 of 2 here]
CHO
  Activity: inactive

## O=C(O)C1=NO[C@H]2[C@@H]1CN[C@@H]2C(=O)O (racemic) [listing 2 of 2 here]
CHO
  Activity: inactive

## O=C(O)C1=NO[C@H]2CN[C@H](C(=O)O)[C@@H]12 (stereo in doubt; (+)-6) [listing 1 of 2 here]
Rattus norvegicus [10]
  EC50: > 1000 µM
[7]
  IC50: > 100 µM
[8]
  IC50: > 100 µM

## O=C(O)C1=NO[C@H]2CN[C@H](C(=O)O)[C@@H]12 (stereo in doubt; (+)-6) [listing 2 of 2 here]
CHO
  Activity: inactive

## O=C(O)C1=NO[C@H]2[C@@H]1CN[C@@H]2C(=O)O (stereo in doubt; (+)-7) [listing 1 of 2 here]
Rattus norvegicus [11]
  EC50: 251 µM
[7]
  IC50: 11.2 µM
[8]
  IC50: 67 µM

## O=C(O)C1=NO[C@H]2[C@@H]1CN[C@@H]2C(=O)O (stereo in doubt; (+)-7) [listing 2 of 2 here]
CHO
  Activity: inactive

## O=C(O)C1=NO[C@H]2CN[C@H](C(=O)O)[C@@H]12 (stereo in doubt; (-)-6) [listing 1 of 2 here]
[7]
  IC50: 0.54 µM
Rattus norvegicus [12]
  EC50: 3.5 µM
[8]
  IC50: 0.23 µM

## O=C(O)C1=NO[C@H]2CN[C@H](C(=O)O)[C@@H]12 (stereo in doubt; (-)-6) [listing 2 of 2 here]
CHO
  Activity: inactive

## O=C(O)C1=NO[C@H]2[C@@H]1CN[C@@H]2C(=O)O (stereo in doubt; (-)-7) [listing 1 of 2 here]
Rattus norvegicus [10]
  EC50: > 1000 µM
[7]
  IC50: > 100 µM
Glutamate NMDA receptor
  IC50: > 100 µM
[8]
  IC50: > 100 µM

## O=C(O)C1=NO[C@H]2[C@@H]1CN[C@@H]2C(=O)O (stereo in doubt; (-)-7) [listing 2 of 2 here]
CHO
  Activity: inactive

## N[C@@H](CCC(=O)O)C(=O)O [GLUTAMIC ACID]
[13]
  pKa: 2.39
[14]
  pKa: 4.21
[15]
  pKa: 9.54

## C=C(C)[C@H]1CN[C@H](C(=O)O)[C@H]1CC(=O)O [KAINIC ACID]
Rattus norvegicus [16]
  EC50: 25 µM

## CN[C@H](CC(=O)O)C(=O)O [N-METHYL-D-ASPARTIC ACID (NMDA)]
Rattus norvegicus [6]
  EC50: 11 µM
